Data as given in the Kinase Knowledgebase extract (Sharma et al. 2016).

Experiments:
MAPK14 (human) [1] = molecular target: MAPK14 (human) (UniProt Q16539); experiment: Inhibition of TNF-alpha Release in THP-1 Cell; conditions: thp1
MAPK14 (mouse) = experiment: Inhibition of MAPK14 Kinase Activity
MAPK14 (human) [2] = molecular target: MAPK14 (human) (UniProt Q16539); experiment: Inhibition of p38 MAP Kinase in Whole Blood

Sequence of MAPK14 (human) (Q16539 whole entry, looked up): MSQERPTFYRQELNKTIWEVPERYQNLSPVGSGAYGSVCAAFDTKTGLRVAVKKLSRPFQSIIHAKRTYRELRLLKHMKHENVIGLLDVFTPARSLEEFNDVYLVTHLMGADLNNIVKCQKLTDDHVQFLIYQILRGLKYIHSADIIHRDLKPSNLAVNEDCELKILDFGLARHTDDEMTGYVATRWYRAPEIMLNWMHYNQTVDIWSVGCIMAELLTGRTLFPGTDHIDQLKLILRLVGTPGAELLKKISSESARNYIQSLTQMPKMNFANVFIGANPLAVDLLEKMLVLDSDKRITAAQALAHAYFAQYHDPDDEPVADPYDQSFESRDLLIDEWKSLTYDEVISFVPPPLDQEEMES

Compound	IC50 (MAPK14 (human) [1])	IC50 (MAPK14 (mouse))	IC50 (MAPK14 (human) [2])
O=C1NCc2nc(Sc3ccc(F)cc3F)c(N3CC4CCC3C4)cc2N1c1c(Cl)cccc1Cl (centres undefined)	500 nM	–	–
O=c1ncc2nc(Sc3ccc(F)cc3F)ccc2n1-c1c(Cl)cccc1Cl	–	600 nM	–
O=C1NCc2nc(Sc3ccc(F)cc3F)c(OC3CCNCC3)cc2N1c1c(Cl)cccc1Cl	–	–	63 nM
O=C1NCc2nc(Sc3ccc(F)cc3F)c(NC3CCNCC3)cc2N1c1c(Cl)cccc1Cl	9 nM	–	17 nM
O=C1NCc2nc(Sc3ccc(F)cc3F)c(N3CCCCC3)cc2N1c1c(Cl)cccc1Cl	500 nM	–	–
CC(C)N1CCN(c2cc3c(nc2Sc2ccc(F)cc2F)CNC(=O)N3c2c(Cl)cccc2Cl)CC1	–	–	170 nM
O=C1NCc2nc(Sc3ccc(F)cc3F)c(N3CCOCC3)cc2N1c1c(Cl)cccc1Cl	22 nM	–	400 nM
CC1CN(c2cc3c(nc2Sc2ccc(F)cc2F)CNC(=O)N3c2c(Cl)cccc2Cl)CC(C)O1 (centres undefined)	25 nM	–	72 nM

Further lines, results first:

IC50 (MAPK14 (human) [1])	IC50 (MAPK14 (mouse))	IC50 (MAPK14 (human) [2])	Compound
1.2 nM	–	51 nM	O=C1NCc2nc(Sc3ccc(F)cc3F)c(N3CC4CC3CN4CC3CC3)cc2N1c1c(Cl)cccc1Cl (centres undefined)
1.3 nM	–	42 nM	CCN1CC2CC1CN2c1cc2c(nc1Sc1ccc(F)cc1F)CNC(=O)N2c1c(Cl)cccc1Cl (centres undefined)
1.5 nM	–	11.2 nM	O=C1NCc2nc(Sc3ccc(F)cc3F)c(N3CC4CC3CN4)cc2N1c1c(Cl)cccc1Cl (centres undefined)
5 nM	–	20 nM	O=C1NCc2nc(Sc3ccc(F)cc3F)c(N3CCNCC3)cc2N1c1c(Cl)cccc1Cl
0.7 nM	–	14 nM	CN(C)CCN1CCN(c2cc3c(nc2Sc2ccc(F)cc2F)CNC(=O)N3c2c(Cl)cccc2Cl)CC1
2 nM	–	9 nM	O=C1NCc2nc(Sc3ccc(F)cc3F)c(N3CCN(CCN4CCCC4)CC3)cc2N1c1c(Cl)cccc1Cl
1.6 nM	–	65 nM	CC(C)N1CC2CC1CN2c1cc2c(nc1Sc1ccc(F)cc1F)CNC(=O)N2c1c(Cl)cccc1Cl (centres undefined)
8.2 nM	–	220 nM	O=C1NCc2nc(Sc3ccc(F)cc3F)c(N3CC4CC3CN4C3CC3)cc2N1c1c(Cl)cccc1Cl (centres undefined)
7.3 nM	–	940 nM	O=C1NCc2nc(Sc3ccc(F)cc3F)c(N3CCC(CCN4CCCC4)CC3)cc2N1c1c(Cl)cccc1Cl
